{"source": "patent US20240358693A1", "about": "“METHODS OF TREATING PAIN” (Aisa Pharma, Inc., priority 2023, published 2024)", "test_system": "participants with SSc-RP", "test": "Scleroderma Health Assessment Questionnaire (SHAQ): disability indices and visual analog scales", "assay_type": "in vivo, human", "conditions": "Day 12", "text": "The standard, validated, patient reported outcome measures tool for SSc patients, the Scleroderma Health Assessment Questionnaire (SHAQ), will be used to assess the participant qualify of life. Details are attached in the Appendix. The participant quality of life will be scored, and a disability index calculated for each questionnaire completed by the patient at Screening and each in-clinic visit. The absolute change in participant quality of life from baseline to the end of each dosing period will be calculated similar to frequency data as before.\nThe SHAQ includes a Raynaud's VAS, which will be reported at screening and each in-clinic visit. The absolute change in Raynaud-VAS, assessed by the participants response to the SHAQ question ‘In the past 7 days, how much have your Raynaud's interfered with your daily activities?’ at baseline and the end of each dosing period will be calculated similar to frequency data as before.\nThe SHAQ is used to calculate a Disability Index to assess the participant qualify of life. The eight categories assessed by the Disability Index are 1) dressing and grooming, 2) arising, 3) eating, 4) walking, 5) hygiene, 6) reach, 7) grip, and 8) common daily activities. For each of these categories, patients report the amount of difficulty they have in performing two or three specific activities.\nThere are four possible responses for the Disability Index questions: • Without any difficulty=0 • With some difficulty=1 • With much difficulty=2 • Unable to do=3. • The highest score reported by the patient for any component question of the eight categories determines the score for that category. • If a component question is left blank or the response is too ambiguous to assign a score, then the score for that category is determined by the remaining completed question(s). • If all component questions are blank or if more than one answer is given, then follow up with the respondent is required. • If the respondent's mark is between the response columns, then move it to the closest one. If it's directly between the two, move it to the higher one.\nEach of the disability items on the SHAQ has a companion aids/devices variable that is used to record what type(s) of assistance, if any, the participant uses for his/her usual activities. These variables (see below) are coded as follows: • 0=No assistance is needed. • 1=A special device is used by the patient in his/her usual activities. • 2=The patient usually needs help from another person. • 3=The patient usually needs BOTH a special device AND help from another person.\nThe scoring variables and scoring rules permit the computation of two disability indices, the Standard Disability Index and the Alternative Disability Index.\nThis question results in a new set of category scores that are computed by adjusting the score for each category, if necessary, based on the patient's use of an aid or device or assistance for that category. If either devices and/or help from another person are checked for a category, the score is set to “2”, unless the score is already “3” (i.e., scores of “0” or “1” are increased to “2”). For example, if the highest score for the dressing category is “1”, and the patient says they use a device for dressing, the computed category score would be “2”. The sum of the computed categories scores is then calculated and divided by the number of categories answered. This gives a score in the 0 to 3 range.\nThe aid and device variables are not used to calculate the alternative disability index; it is calculated by adding the scores for each of the categories and dividing by the number of categories answered. This gives a score in the 0 to 3 range.\nThe standard, validated, patient reported outcome measures tool for SSc patients, the SHAQ, was collected at the time points specified in the study schedules (FIG. 2 and FIGS. 4A and 4B) to assess the participant's quality of life. The SHAQ included a Raynaud's VAS that will also be reported separately.", "key": {"[1]": {"conditions": "Modified ITT, Part A, dose Cilnidipine 20 mg, or 20 mg + Tadalafil 5 mg"}, "[2]": {"conditions": "Pooled Cilnidipine 10 mg and Cilnidipine 10 mg + Tadalafil 5 mg (N = 9), PP Population Part A"}, "[3]": {"conditions": "Pooled Cilnidipine 10 mg and Cilnidipine 10 mg + Tadalafil 5 mg (N = 9), PP Population Part A, Subject 01-110 score excluded"}, "[4]": {"conditions": "Pooled Cilnidipine 20 mg and Cilnidipine 20 mg + Tadalafil 5 mg (N = 8), PP Population Part A"}}}
{"smiles": "COCCOC(=O)C1=C(C)NC(C)=C(C(=O)OC/C=C/c2ccccc2)C1c1cccc([N+](=O)[O-])c1", "note": "(centres unmarked) [Cilnidipine, cilnidipine]", "values": [{"measurement": "SHAQ Finger Ulcers, Percent Change from Baseline, Median", "setting": "[1]", "value": 35.29, "unit": "%"}, {"measurement": "SHAQ Standard Disability Index, Change from Baseline, Mean", "setting": "[1]", "value": "−0.125"}, {"measurement": "SHAQ Standard Disability Index, Change from Baseline, Median", "setting": "[1]", "value": "−0.125"}, {"measurement": "SHAQ Standard Disability Index, Percent Change from Baseline, Mean", "setting": "[1]", "value": "−50.00", "unit": "%"}, {"measurement": "SHAQ Standard Disability Index, Percent Change from Baseline, Median", "setting": "[1]", "value": "−50.00", "unit": "%"}, {"measurement": "SHAQ Visual Analog Scale-Breathing Problems, Change from Baseline, Mean", "setting": "[1]", "value": "−0.833"}, {"measurement": "SHAQ Visual Analog Scale-Breathing Problems, Change from Baseline, Median", "setting": "[1]", "value": "−0.800"}, {"measurement": "SHAQ Visual Analog Scale-Breathing Problems, Percent Change from Baseline, Mean", "setting": "[1]", "value": "−5.56", "unit": "%"}, {"measurement": "SHAQ Visual Analog Scale-Breathing Problems, Percent Change from Baseline, Median", "setting": "[1]", "value": "−66.67", "unit": "%"}, {"measurement": "SHAQ Visual Analog Scale-Intestinal Problems, Change from Baseline, Mean", "setting": "[1]", "value": 0.300}, {"measurement": "SHAQ Visual Analog Scale-Intestinal Problems, Change from Baseline, Median", "setting": "[1]", "value": 0.300}, {"measurement": "SHAQ Visual Analog Scale-Intestinal Problems, Percent Change from Baseline, Mean", "setting": "[1]", "value": 35.00, "unit": "%"}, {"measurement": "SHAQ Visual Analog Scale-Intestinal Problems, Percent Change from Baseline, Median", "setting": "[1]", "value": 35.00, "unit": "%"}, {"measurement": "SHAQ Visual Analog Scale-Pain, Change from Baseline, Mean", "setting": "[1]", "value": "−1.100"}, {"measurement": "SHAQ Visual Analog Scale-Pain, Change from Baseline, Median", "setting": "[1]", "value": "−0.800"}, {"measurement": "SHAQ Visual Analog Scale-Pain, Percent Change from Baseline, Mean", "setting": "[1]", "value": "−52.56", "unit": "%"}, {"measurement": "SHAQ Visual Analog Scale-Pain, Percent Change from Baseline, Median", "setting": "[1]", "value": "−53.33", "unit": "%"}, {"measurement": "SHAQ Visual Analog Scale-Raynaud's, Change from Baseline, Mean", "setting": "[1]", "value": "−1.267"}, {"measurement": "SHAQ Visual Analog Scale-Raynaud's, Change from Baseline, Median", "setting": "[1]", "value": "−1.100"}, {"measurement": "SHAQ Visual Analog Scale-Raynaud's, Percent Change from Baseline, Mean", "setting": "[1]", "value": "−48.63", "unit": "%"}, {"measurement": "SHAQ Visual Analog Scale-Raynaud's, Percent Change from Baseline, Median", "setting": "[1]", "value": "−44.00", "unit": "%"}, {"measurement": "SHAQ Visual Analogue Scale - Finger Ulcers, Change from Baseline, Mean", "setting": "[2]", "value": "−0.267"}, {"measurement": "SHAQ Visual Analogue Scale - Finger Ulcers, Change from Baseline, Median", "setting": "[2]", "value": "−0.100"}, {"measurement": "SHAQ Visual Analogue Scale - Finger Ulcers, Percent Change from Baseline, Mean", "setting": "[2]", "value": "−46.06", "unit": "%"}, {"measurement": "SHAQ Visual Analogue Scale - Finger Ulcers, Percent Change from Baseline, Median", "setting": "[2]", "value": "−31.94", "unit": "%"}, {"measurement": "SHAQ Visual Analogue Scale - Intestinal Problems, Change from Baseline, Mean", "setting": "[2]", "value": "−1.228"}, {"measurement": "SHAQ Visual Analogue Scale - Intestinal Problems, Change from Baseline, Median", "setting": "[2]", "value": "−0.250"}, {"measurement": "SHAQ Visual Analogue Scale - Intestinal Problems, Percent Change from Baseline, Mean", "setting": "[2]", "value": "−27.93", "unit": "%"}, {"measurement": "SHAQ Visual Analogue Scale - Intestinal Problems, Percent Change from Baseline, Median", "setting": "[2]", "value": "−54.13", "unit": "%"}, {"measurement": "SHAQ Visual Analogue Scale - Overall Disease Severity, Change from Baseline, Mean", "setting": "[2]", "value": "−0.606"}, {"measurement": "SHAQ Visual Analogue Scale - Overall Disease Severity, Change from Baseline, Median", "setting": "[2]", "value": "−0.700"}, {"measurement": "SHAQ Visual Analogue Scale - Overall Disease Severity, Percent Change from Baseline, Mean", "setting": "[2]", "value": "−24.68", "unit": "%"}, {"measurement": "SHAQ Visual Analogue Scale - Overall Disease Severity, Percent Change from Baseline, Median", "setting": "[2]", "value": "−30.93", "unit": "%"}, {"measurement": "SHAQ Visual Analogue Scale - Pain, Change from Baseline, Mean", "setting": "[2]", "value": "−0.633"}, {"measurement": "SHAQ Visual Analogue Scale - Pain, Change from Baseline, Median", "setting": "[2]", "value": "−0.700"}, {"measurement": "SHAQ Visual Analogue Scale - Pain, Percent Change from Baseline, Mean", "setting": "[2]", "value": "−20.07", "unit": "%"}, {"measurement": "SHAQ Visual Analogue Scale - Pain, Percent Change from Baseline, Median", "setting": "[2]", "value": "−21.87", "unit": "%"}, {"measurement": "SHAQ Visual Analogue Scale - Raynaud's, Change from Baseline, Mean", "setting": "[2]", "value": "−0.414"}, {"measurement": "SHAQ Visual Analogue Scale - Raynaud's, Change from Baseline, Median", "setting": "[2]", "value": "−0.100"}, {"measurement": "SHAQ Visual Analogue Scale - Raynaud's, Percent Change from Baseline, Mean", "setting": "[2]", "value": "−9.97", "unit": "%"}, {"measurement": "SHAQ Visual Analogue Scale - Raynaud's, Percent Change from Baseline, Median", "setting": "[2]", "value": "−4.39", "unit": "%"}, {"measurement": "SHAQ Visual Analogue Scale - Breathing Problems, Change from Baseline, Mean", "setting": "[3]", "value": "−0.175"}, {"measurement": "SHAQ Visual Analogue Scale - Breathing Problems, Change from Baseline, Median", "setting": "[3]", "value": 0.000}, {"measurement": "SHAQ Visual Analogue Scale - Breathing Problems, Percent Change from Baseline, Mean", "setting": "[3]", "value": "−26.05", "unit": "%"}, {"measurement": "SHAQ Visual Analogue Scale - Breathing Problems, Percent Change from Baseline, Median", "setting": "[3]", "value": "−21.33", "unit": "%"}, {"measurement": "SHAQ Visual Analogue Scale - Breathing Problems, Change from Baseline, Mean", "setting": "[4]", "value": 0.225}, {"measurement": "SHAQ Visual Analogue Scale - Breathing Problems, Change from Baseline, Median", "setting": "[4]", "value": 0.150}, {"measurement": "SHAQ Visual Analogue Scale - Breathing Problems, Percent Change from Baseline, Mean", "setting": "[4]", "value": 93.65, "unit": "%"}, {"measurement": "SHAQ Visual Analogue Scale - Breathing Problems, Percent Change from Baseline, Median", "setting": "[4]", "value": 31.58, "unit": "%"}, {"measurement": "SHAQ Visual Analogue Scale - Finger Ulcers, Change from Baseline, Mean", "setting": "[4]", "value": "−0.950"}, {"measurement": "SHAQ Visual Analogue Scale - Finger Ulcers, Change from Baseline, Median", "setting": "[4]", "value": "−0.050"}, {"measurement": "SHAQ Visual Analogue Scale - Finger Ulcers, Percent Change from Baseline, Mean", "setting": "[4]", "value": "−15.69", "unit": "%"}, {"measurement": "SHAQ Visual Analogue Scale - Finger Ulcers, Percent Change from Baseline, Median", "setting": "[4]", "value": "−48.04", "unit": "%"}, {"measurement": "SHAQ Visual Analogue Scale - Intestinal Problems, Change from Baseline, Mean", "setting": "[4]", "value": 0.200}, {"measurement": "SHAQ Visual Analogue Scale - Intestinal Problems, Change from Baseline, Median", "setting": "[4]", "value": 0.000}, {"measurement": "SHAQ Visual Analogue Scale - Intestinal Problems, Percent Change from Baseline, Mean", "setting": "[4]", "value": "−6.27", "unit": "%"}, {"measurement": "SHAQ Visual Analogue Scale - Intestinal Problems, Percent Change from Baseline, Median", "setting": "[4]", "value": "−29.44", "unit": "%"}, {"measurement": "SHAQ Visual Analogue Scale - Overall Disease Severity, Change from Baseline, Mean", "setting": "[4]", "value": "−1.425"}, {"measurement": "SHAQ Visual Analogue Scale - Overall Disease Severity, Change from Baseline, Median", "setting": "[4]", "value": "−1.550"}, {"measurement": "SHAQ Visual Analogue Scale - Overall Disease Severity, Percent Change from Baseline, Mean", "setting": "[4]", "value": "−47.98", "unit": "%"}, {"measurement": "SHAQ Visual Analogue Scale - Overall Disease Severity, Percent Change from Baseline, Median", "setting": "[4]", "value": "−48.23", "unit": "%"}, {"measurement": "SHAQ Visual Analogue Scale - Pain, Change from Baseline, Mean", "setting": "[4]", "value": "−0.500"}]}
